Read-outs that look alike come from different tables or passages of the source.
Tested on: BV-2 (mouse microglia) cells
Test: progranulin secretion from BV-2 cells, mouse progranulin ELISA of conditioned media
Type: cell-based
Conditions: for EC50: BV-2 cells, 16 hours incubation, 8-point curves starting at 10 μM
Procedure: BV-2 cells are split the day before plating into a 96 well plate format at approximately 80%. Cells should be plated the day before and allowed for 1 hour attachment period and for 16 hour incubation. […] Standard ELISA kits to measure PGRN are available from vendors such as Adipogen, R&D, and Biovendor.
Compound potency was determined by measuring progranulin secretion from BV-2 (mouse microglia) cells. BV-2 cells were grown in RPMI with 2 mM L-glutamine supplemented with 10% fetal bovine serum. On the day of the assay, cells were plated in 96-well plates at a density of 30,000 cells/well in RPMI (Roswell Park Memorial Institute media)/L-glutamine supplemented with 2% Fetal clone serum II (plating media) and left to adhere for 1 hour. Following attachment to the plate, media was replaced with treatment (8-point curves in half-log dilutions starting at 10 μM) in plating media and incubated for 16 hours. Secreted progranulin was measured from a 1:10 dilution of the conditioned media using the R&D Systems mouse progranulin ELISA kit (cat #DY2557) and following the manufacturer's instructions.

[1] = Mus musculus, BV-2, 16 h, assay run v1, read-out: PRGN v1 (EC50, progranulin secretion)
[2] = Mus musculus, BV-2, 16 h, assay run v2 (same protocol, different assay), read-out: PRGN v2 (EC50, progranulin secretion)
[3] = Mus musculus, assay run v2 (same protocol, different assay), read-out: PRGN v2 (EC50, progranulin secretion)
[4] = assay run v2 (same protocol, different assay), read-out: PRGN v2 (EC50, progranulin secretion)

SMILES	EC50 [1]	EC50 [2]	EC50 [3]	further results
O=C(N[C@@H]1CN2CCC1CC2)N1CCc2ccccc2[C@H]1c1ccc2cncn2c1 [Compound 1112]	> 10 µM	> 10 µM		
O=C(N[C@@H]1CN2CCC1CC2)N1CCc2ccccc2[C@@H]1c1ccc(-n2cnnc2)cc1 [Compound 1113]	3.59 µM	> 10 µM		
O=C(N[C@@H]1CN2CCC1CC2)N1CCc2ccccc2[C@H]1c1ccc(-n2cnnc2)cc1 [Compound 1114]	> 10 µM	> 10 µM		
O=C(N[C@@H]1CN2CCC1CC2)N1CCc2ccccc2[C@@H]1c1ccc(OC2CC2)cc1 [Compound 1115]	3.95 µM	1.18 µM		
O=C(N[C@@H]1CN2CCC1CC2)N1CCc2ccccc2[C@H]1c1ccc(OC2CC2)cc1 [Compound 1116]	4.47 µM	> 10 µM		
O=C(N[C@@H]1CN2CCC1CC2)N1CCc2ccccc2[C@@H]1c1cnc2nccn2c1 [Compound 1117]	> 10 µM	> 10 µM		
O=C(N[C@@H]1CN2CCC1CC2)N1CCc2ccccc2[C@H]1c1cnc2nccn2c1 [Compound 1118]	> 10 µM	> 10 µM		
O=C1CCCN1c1ccc([C@H]2c3ccccc3CCN2C(=O)N[C@@H]2CN3CCC2CC3)cc1 [Compound 1119]	> 10 µM	> 10 µM		
O=C1CCCN1c1ccc([C@@H]2c3ccccc3CCN2C(=O)N[C@@H]2CN3CCC2CC3)cc1 [Compound 1120]	> 10 µM	> 10 µM		
O=C(N[C@@H]1CN2CCC1CC2)N1CCc2cccnc2[C@@H]1c1ccc(Cl)cc1 [Compound 1121]	> 10 µM	5.22 µM		
O=C(N[C@@H]1CN2CCC1CC2)N1CCc2cccnc2[C@H]1c1ccc(Cl)cc1 [Compound 1122]	3.13 µM	> 10 µM		
CS(=O)(=O)N1CC([C@H]2c3ccccc3CCN2C(=O)N[C@@H]2CN3CCC2CC3)C1 [Compound 1123]	> 10 µM	> 10 µM		
CS(=O)(=O)N1CC([C@@H]2c3ccccc3CCN2C(=O)N[C@@H]2CN3CCC2CC3)C1 [Compound 1124]	> 10 µM	> 10 µM		
O=C(Cc1ccccc1)N1CCc2ccccc2[C@@H]1c1ccc(F)cc1 [Compound 1125, (S)-1-(1-(4-fluorophenyl)-3,4-dihydroisoquinolin-2(1H)-yl)-2-phenylethanone]		> 10 µM		
O=C(O[C@@H]1CN2CCC1CC2)N1CCc2ccccc2[C@@H]1c1ccc(C(F)(F)F)cc1 [Compound 1126]			8.6 µM	
O=C(O[C@@H]1CN2CCC1CC2)N1CCc2ccccc2[C@H]1c1ccc(C(F)(F)F)cc1 [Compound 1127]			> 10 µM	
O=C(O[C@@H]1CN2CCC1CC2)N1CCc2ccccc2[C@@H]1c1ccc(OC(F)(F)F)cc1 [Compound 1128]			2.6 µM	
O=C(O[C@@H]1CN2CCC1CC2)N1CCc2ccccc2[C@H]1c1ccc(OC(F)(F)F)cc1 [Compound 1129]			4.35 µM	
CN(C(=O)N1CCc2ccccc2[C@@H]1c1ccc(F)cc1)[C@@H]1CN2CCC1CC2 [Compound 1130]		1.03 µM		
CN(C(=O)N1CCc2ccccc2[C@@H]1c1ccc(F)cc1)[C@H]1CN2CCC1CC2 [Compound 1131]		> 10 µM		

SMILES	EC50 [1]	EC50 [2]	EC50 [3]	further results
Cc1nc2cc([C@H]3c4ccccc4CCN3C(=O)O[C@@H]3CN4CCC3CC4)ccc2s1 [Compound 1132]			> 10 µM	
Cc1nc2cc([C@@H]3c4ccccc4CCN3C(=O)O[C@@H]3CN4CCC3CC4)ccc2s1 [Compound 1133]			9.28 µM	
O=C(O[C@@H]1CN2CCC1CC2)N1CCc2ccccc2[C@@H]1COc1ccc(F)cc1 [Compound 1134]				EC50 [4]: > 10 µM
O=C(O[C@@H]1CN2CCC1CC2)N1CCc2ccccc2[C@H]1COc1ccc(F)cc1 [Compound 1135]				EC50 [4]: > 10 µM
O=S(=O)(C[C@@H]1CN2CCC1CC2)N1CCc2ccccc2[C@@H]1c1ccc(F)cc1 [Compound 1136]		1.7 µM		
O=S(=O)(C[C@H]1CN2CCC1CC2)N1CCc2ccccc2[C@@H]1c1ccc(F)cc1 [Compound 1137]		4.41 µM		
Cc1nc2ccc([C@H]3c4ccccc4CCN3C(=O)O[C@@H]3CN4CCC3CC4)cc2o1 [Compound 1138]			> 10 µM	
Cc1nc2ccc([C@@H]3c4ccccc4CCN3C(=O)O[C@@H]3CN4CCC3CC4)cc2o1 [Compound 1139]			> 10 µM	
O=S(=O)(C[C@@H]1CN2CCC1CC2)N1CCc2ccccc2[C@@H]1c1ccccc1 [Compound 1140]		> 10 µM		
O=S(=O)(C[C@@H]1CN2CCC1CC2)N1CCc2ccccc2[C@H]1c1ccccc1 [Compound 1141]		3.36 µM		
O=S(=O)(C[C@H]1CN2CCC1CC2)N1CCc2ccccc2[C@@H]1c1ccccc1 [Compound 1142]		> 10 µM		
O=S(=O)(C[C@H]1CN2CCC1CC2)N1CCc2ccccc2[C@H]1c1ccccc1 [Compound 1143]		> 10 µM		
CC1(C)[C@@H](OC(=O)N2CCc3ccccc3[C@@H]2c2ccc(F)cc2)C2CCN1CC2 [Compound 1144]				EC50 [4]: > 10 µM
CC1(C)[C@H](OC(=O)N2CCc3ccccc3[C@@H]2c2ccc(F)cc2)C2CCN1CC2 [Compound 1145]				EC50 [4]: 0.57 µM
COCCOCCOCCNC(=O)c1ccc([C@H]2c3ccccc3CCN2C(=O)O[C@@H]2CN3CCC2CC3)cc1 [Compound 1146]			> 10 µM	
COCCOCCOCCNC(=O)c1ccc([C@@H]2c3ccccc3CCN2C(=O)O[C@@H]2CN3CCC2CC3)cc1 [Compound 1147]			> 10 µM	
CC1(C)[C@@H](OC(=O)N2CCc3ccccc3[C@@H]2c2cccc(F)c2F)C2CCN1CC2 [Compound 1148]			> 10 µM	
CC1(C)C(OC(=O)N2CCc3ccccc3[C@H]2c2cccc(F)c2F)C2CCN1CC2 (stereo partly shown) [Compound 1149]			0.43 µM	
O=C(O[C@H]1CN2CCC1CC2)N1CCc2ccccc2[C@@H]1c1ccccc1 [Solifenacin, solifenacin, reference compound]				secretion of progranulin from mouse BV2 cells (mouse BV2 cells): causes the secretion of progranulin from mouse BV2 cells
